Measurements published in patent US20260315486A1, “ALECTINIB FOR THE TREATMENT OF ALK FUSION-POSITIVE SOLID OR CNS TUMOURS” (Hoffmann-La Roche Inc., priority 2023, published 2026).

Experiments:
[1] = test system: ALK fusion-positive solid or CNS tumours; experiment: Paediatric clinical trial, Part 1 safety run-in: investigator-reported tumour response (RANO / RECIST v1.1 / INRC); assay type: in vivo, human (paediatric patients)
Text: The study consists of three parts, all enrolling paediatric participants with solid or CNS tumours with known ALK fusion for whom prior treatment has proven to be ineffective or for whom there is no satisfactory treatment available: • Part 1, dose confirmation and safety run-in: to identify the RP2D for paediatric participants, achieving the exposure observed in the adult population • This portion will consist of a safety run-in with a minimum of 6 participants (up to approximately 18 participants) to assess the safety, tolerability, and pharmacokinetics of alectinib in the paediatric population. The initial paediatric dose will be assessed and refined by modelling and simulation prospectively. • Part 2, initial expansion: to evaluate the safety and preliminary efficacy of alectinib in newly enrolled paediatric participants treated at the paediatric RP2D. A minimum of 10 participants will be enrolled in this part of the study. If 4 or more participants achieve an objective response to alectinib (as described in Part 2, below), additional expansion will be performed. • Part 3, additional expansion: This portion of the study will enroll approximately 14 additional paediatric participants. An integrated efficacy analysis accounting for every participant treated at paediatric RP2D across all cohorts will be used for the confirmation of the efficacy of alectinib.
(§1) Alectinib will be administered orally or via feeding tube to participants BID on Days 1-28 of each 28-day cycle. All participants will be closely monitored for adverse events (regardless of relationship to study drug) throughout the study and for at least 28 days after the final dose of study treatment or until initiation of a new anti-cancer therapy, whichever occurs first.
Response will be assessed by the investigator on the basis of physical examinations, computed tomography (CT) scans, and other modalities where relevant (e.g., magnetic resonance imaging [MRI] scans, brain scans, bone marrow examinations, fluorodeoxyglucose-positron emission tomography (FDG-PET), metaiodobenzoguanidine [MIBG] scan), according to RANO, INRC, and RECIST v1.1 (see below). Tumour assessment imaging should include all areas of known disease.
An objective response should be confirmed by repeat assessments ≥4 weeks after initial documentation. The same radiographic procedure used to assess disease sites at screening should be used throughout the study (e.g., the same contrast protocol for CT scans). To the extent that is feasible, assessments should be performed by the same evaluator to ensure internal consistency across visits.
Selected sections from the Response Evaluation Criteria in Solid Tumors (RECIST), Version 1.1 (Eisenhauer et al., 2009, Eur J Cancer, 45:228-47) are presented below, with slight modifications.
Antitumor activity will be assessed based on clinical and radiographic evidence as described by the INRC (Park et al. 2017, Clin Oncol; 35:2580-7).
Antitumor activity will be assessed based on clinical and radiographic evidence as described by the RANO criteria.
The primary efficacy endpoint is ORR in participants treated at the paediatric RP2D, as assessed by BICR, defined as the proportion of participants with an objective response. The objective response for individual participants will be assessed per RECIST v1.1 for participants with extracranial tumours, and per RANO for participants with primary CNS tumours, and INRC for neuroblastoma. An objective response is defined as a CR or PR per disease-specific response criteria, confirmed ≥4 weeks apart in two separate tumour assessments. Participants not meeting these criteria (including participants without a postbaseline tumour assessment) will be considered non-responders.
Patients with ALK fusion-positive solid or CNS tumours for whom prior treatment has proven to be ineffective or for whom there is no satisfactory treatment available, less than 18 years of age, were eligible. […]

[2] = Paediatric clinical trial, Part 1 safety run-in: safety and tolerability (dose-limiting toxicities, adverse events); assay type: in vivo, human (paediatric patients)
Text: as §1
Owing to the limitations of predicting exposure in children who are <2 years old, before enrolment of participants <2 years old, the investigator must discuss a participant's case with the Medical Monitor until at least 3 participants who are ≥2-6 years old have completed one cycle of treatment. The first participant enrolled must complete at least 8 days of treatment without a DLT before subsequent participants can enroll. If a dose adjustment is required because of toxicity, the same approach will be taken for the first participant at the new dose level. Participants will be closely monitored for adverse events during a DLT assessment window of one cycle (28 days). Participants who discontinue from the study prior to completing the DLT assessment window or who complete <80% (i.e., […]) of the prescribed therapy for that cycle for reasons other than a DLT will be considered non-evaluable. DLT non-evaluable participants will be replaced, unless the Medical Monitor determines that replacement is not necessary for a dose adjustment decision. The Medical Monitor will review all participants who take prohibited therapies, foods, or supplements or who receive supportive care during the DLT assessment window that would confound the evaluation of DLTs (not including supportive care described below as part of the DLT definition) to determine DLT evaluability and whether such participants will be replaced.
During the safety run-in phase, any one of the following events will be considered a DLT if it occurs during the DLT assessment window and is assessed by the investigator to be related or possibly related to alectinib (rules for attributing causality are defined below in ‘Adverse events’). Adverse events identified as DLTs, as defined below, must be reported to the Sponsor within 24 hours.
The following will be considered as a DLT: • Any treatment-related death • Grade 4 neutropenia (ANC<500 cells/mm^3 which is equivalent to ANC<0.5×10^9/L) lasting at least 7 days • Febrile neutropenia: ANC<1000 cells/mm^3 (which is equivalent to ANC<1×10^9/L) with a single temperature of >38.3° C. (101° F.) or a sustained temperature of ≥38° C. (100.4° F.) for more than 1 hour • Grade 4 anaemia • Grade 4 thrombocytopenia (i.e., platelet count <25.0×10^9/L) or Grade 3 thrombocytopenia associated with clinically significant bleeding or any thrombocytopenia requiring platelet transfusion. • Of note, the post-surgical platelet threshold for platelets transfusion could be higher. […]

[3] = stated as known; may result in bradycardia; cited from earlier work
[4] = Peters et al., 2017; cited from earlier work
[5] = test system: FGFR2; conditions: stated without data; cited from earlier work
[6] = 7 patients evaluable for efficacy (ALCL patient excluded), investigator, data cut off Jun. 12, 2023
[7] = 7 patients evaluable for efficacy, investigator
[8] = 8 patients, Part 1 safety run-in

## CCc1cc2c(cc1N1CCC(N3CCOCC3)CC1)C(C)(C)c1[nH]c3cc(C#N)ccc3c1C2=O [Alectinib, 9-ethyl-6,6-dimethyl-8-(4-morpholin-4-yl-piperidin-1-yl)-11-oxo-6,11-dihydro-5H-benzo[b]carbazole-3-carbonitrile]
[1]; [6]
  Best Overall Response: responders (CR + PR), number of patients: 4 patients
  Best Overall Response: responders (CR + PR), percent of patients: 57.1%
[1]; [7]
  Best Overall Response: CR, number of patients: 1 CR
  Best Overall Response: PR, number of patients: 3 PR
  Best Overall Response: Stable Disease, number of patients: 2 patients
  Best Overall Response: Stable Disease, percent of patients: 28.6%
[1]; N = 8, all enrolled patients
  Best Overall Response (Investigator): Complete Response (CR), number of patients: 1
  Best Overall Response (Investigator): Partial Response (PR), number of patients: 4
  Best Overall Response (Investigator): Progressive Disease (PD), number of patients: 0
  Best Overall Response (Investigator): Stable Disease (SD), number of patients: 2
  Best Overall Response (Investigator): Total Responders, number of patients: 5
  Best Overall Response (Investigator, %): Complete Response (CR): 12.5%
  Best Overall Response (Investigator, %): Partial Response (PR): 50.0%
  Best Overall Response (Investigator, %): Progressive Disease (PD): 0.0%
  Best Overall Response (Investigator, %): Total Responders: 62.5%
[1]; conclusion, paediatric patients with ALK-fusion positive solid or CNS tumours
  Response, in words: majority of patients experiencing a response
[2]; [8]
  AE-related deaths: no AE-related deaths
  Dose Limiting Toxicities: No Dose Limiting Toxicities were reported
  New safety signals: no new safety signals detected
  Patients with Grade ≥3 related AE: 2 patients
  Patients with a related Adverse Event (AE): Seven
[2]; paediatric patients with ALK-fusion positive solid or CNS tumours
  Tolerability: generally well tolerated
[3]
  Negative chronotropic effect: known negative chronotropic effect of alectinib that may result in bradycardia
[4]
  CNS penetration: CNS penetrant
[5]
  Inhibitory activity on FGFR2: no inhibitory activity
